Measured values reported in patent US6946459B2, “CRYSTALLINE FORMS OF 1S-[1ALPHA(2S*,3R*), 9ALPHA]6, 10-DIOXO-N-(2-ETHOXY-5-OXO-TETRAHYDRO-3-FURANYL)-9[[(1-ISOQUINOLYL) CARBONYL]AMINO]OCTAHYDRO-6H-PIRIDAZINO[1,2-A][1,2]DIAZEPIN-1-CARBOXAMIDE” (Aventis Pharma S. A., priority 1998, dated 2005).
“Also recorded” adds a separate entry of the source.

What was measured:
[1] = Hygroscopicity curve (water sorption isotherm), Dynamic Vapor Sorption DVS 1; type: physicochemical; design: Sorption / Desorption: unit not given here; settings: for Hygroscopicity (in words): sorption cycle / general statement
Protocol: Hygroscopicity Curve (or Water Sorption Isotherm)
The water sorption isotherms were obtained using a Dynamic Vapor Sorption DVS 1 device (Surface Measurements System Ltd) at a constant temperature and under a more or less hydrated nitrogen atmosphere. The degree of relative humidity (RH) of the atmosphere was modified in stages. The passage from one stage to the next is carried out when the weight of the sample to be analyzed has reached a constant value.

[2] = Sample left 7 days in a chamber at 96% relative humidity (32° C.); type: physicochemical; settings: 7 days at 96% relative humidity; for Hygroscopicity (in words): compared with form A
Protocol: The non-hygroscopicity was confirmed by leaving a sample for 7 days in a chamber at 96% relative humidity (at 32° C.) An absorption of water of approximately 0.15% was observed. […] The same situation pertains regarding the amorphous form.

[3] = RH 0.0 %, water sorption isotherm, constant temperature
[4] = RH 0.0 %, water sorption isotherm, constant temperature, water uptake (%)

Desorption [1, 3]	Sorption [1, 4]	Desorption ([1]; RH 12.0 %)	Sorption ([1]; RH 12.0 %)	Desorption ([1]; RH 21.0 %)	Sorption ([1]; RH 21.0 %)	Desorption ([1]; RH 32.0 %)	Sorption ([1]; RH 32.0 %)	Desorption ([1]; RH 43.0 %)	Sorption ([1]; RH 43.0 %)	Desorption ([1]; RH 51.0 %)	Sorption ([1]; RH 51.0 %)	Desorption ([1]; RH 57.0 %)	Sorption ([1]; RH 57.0 %)	Desorption ([1]; RH 66.0 %)	Sorption ([1]; RH 66.0 %)	Desorption ([1]; RH 75.0 %)	Sorption ([1]; RH 75.0 %)	Desorption ([1]; RH 80.0 %)	Sorption ([1]; RH 80.0 %)	Structure (SMILES)	further results
−0.20	0.00	1.43	0.67	2.09	0.97	2.58	1.29	2.94	1.60	3.19	1.83	3.35	2.03	3.61	2.37	3.90	2.90	4.12	3.71	CCO[C@@H]1OC(=O)C[C@@H]1NC(=O)[C@@H]1CCCN2C(=O)CC[C@H](NC(=O)c3nccc4ccccc34)C(=O)N12 [AMORPHOUS, 1S-[1alpha(2R, 3S), 9alpha]6, 10-dioxo-N-(2-ethoxy-5-oxo-tetrahydro-3-furanyl)-9[[(1-isoquinolyl)carbonyl]amino]octahydro-6H-pyridazino[1,2-a][1, 2]diazepin-1-carboxamide, reference compound]	Desorption ([1]; RH 90.0 %): 4.94; Sorption ([1]; RH 90.0 %): 5.11; Desorption ([1]; RH 96.0 %): 5.93; Sorption ([1]; RH 96.0 %): 5.93; Hygroscopicity (in words) ([1]; listed as Compound (I)): hygroscopic; Hygroscopicity (in words) [2]: more hygroscopic
0.11	0.00	0.12	0.03	0.14	0.05	0.19	0.07	0.21	0.09	0.22	0.11	0.21	0.13	0.21	0.14	0.21	0.14	0.21	0.16	CCO[C@@H]1OC(=O)C[C@@H]1NC(=O)[C@@H]1CCCN2C(=O)CC[C@H](NC(=O)c3nccc4ccccc34)C(=O)N12 [form A]	Desorption ([1]; RH 90.0 %): 0.19; Sorption ([1]; RH 90.0 %): 0.14; Desorption ([1]; RH 96.0 %): 0.06; Sorption ([1]; RH 96.0 %): 0.06; Hygroscopicity (in words) [1]: absence of hygroscopicity; also recorded: not hygroscopic; Water uptake during the sorption cycle ([1]; whole sorption cycle, RH 0 to 96 %): < 0.2%; Absorption of water [2]: approximately 0.15%
−0.11	0.00	1.42	1.41	2.33	2.36	3.14	3.23	3.75	3.88	4.13	4.26	4.40	4.53	4.75	4.92	5.08	5.27	5.30	5.45	CCO[C@@H]1OC(=O)C[C@@H]1NC(=O)[C@@H]1CCCN2C(=O)CC[C@H](NC(=O)c3nccc4ccccc34)C(=O)N12 [form B, 1S-[1alpha (2R, 3S), 9alpha]6,10-dioxo-N-(2-ethoxy-5-oxo-tetrahydro-3-furanyl)-9[[(1-isoquinolyl)carbony]amino]octahydro-6H-pyridazino[1,2-a][1,2]diazepin-1-carboxamide]	Desorption ([1]; RH 90.0 %): 5.96; Sorption ([1]; RH 90.0 %): 5.93; Desorption ([1]; RH 96.0 %): 6.86; Sorption ([1]; RH 96.0 %): 6.86; Absorption of water [2]: 7%; Hygroscopicity (in words) [2]: more hygroscopic
